From patent US5635527A, “Carboxylic acid compound having condensed ring, salt thereof and pharmaceutical use thereof” (The Green Cross Corporation, priority 1994, dated 1997)

Tested on: human platelets
Assay: suppressive activity on ADP aggregation of human platelets
Assay type: cell-based
Settings: platelet rich plasma, ADP 1-5 μM, compound added 2 minutes before ADP, read-out: Suppression of platelet aggregation (IC50)
Protocol: Determination of suppressive activity on ADP aggregation of human platelets
Platelet rich plasma was prepared from the blood taken from healthy humans by centrifugation in the presence of 0.38% sodium citrate, and used for the determination.
Two minutes after the test compounds shown in Table 1 were added to the above-mentioned platelet rich plasma, ADP (adenosine-5'-diphosphate) (1-5 μM) having a concentration at which primary aggregation alone is observed was added, and the suppression of ADP aggregation by the compounds was evaluated. The percent suppression was determined by varying the concentration of the compounds and the concentration of the compound at which the aggregation was suppressed by 50% (IC50) was calculated, which was taken as the activity of the compound.

IC50	Structure (SMILES)
70 nM	N=C(N)c1ccc2oc(C(=O)Nc3ccc(C[C@H](NS(=O)(=O)C(F)(F)F)C(=O)O)cc3)cc2c1 [Compound 55, (S)-3-[4-[(5-Amidino-2-benzofuranyl)carbonylamino]phenyl]-2-(trifluoromethylsulfonylamino)propionic acid]
30 nM	COc1ccc(CCC(=O)N[C@@H](Cc2ccc(NC(=O)c3cc4cc(C(=N)N)ccc4o3)cc2)C(=O)O)cc1 [Compound 61, (S)-3-[4-[(5-Amidino-2-benzofuranyl)carbonylamino]phenyl]-2-[3-(4-methoxyphenyl)propionylamino]propionic acid]
6 nM	N=C(N)c1ccc2oc(C(=O)N[C@H]3CC[C@H](CCC(=O)O)CC3)cc2c1 [Compound 167, trans-3-[4-[(5-amidino-2-benzofuranyl)carbonylamino]cyclohexyl]propionic acid]
70 nM	CCOC(=O)CC[C@H]1CC[C@H](NC(=O)c2cc3cc(C(=N)N)ccc3o2)CC1 [Compound 159]
500 nM	COC(=O)CCc1ccc(NC(=O)c2cc3cc(C(=N)N)ccc3o2)cc1 [Compound 35, Methyl 3-[4-[(5-amidino-2-benzofuranyl)carbonylamino]phenyl]propionate]
30 nM	N=C(N)c1ccc2oc(C(=O)Nc3ccc(OCC(=O)O)cc3)cc2c1 [Compound 10, 4-[(5-Amidino-2-benzofuranyl)carbonylamino]phenoxyacetic acid]
60 nM	N=C(N)c1ccc2oc(C(=O)Nc3ccc(C[C@H](N)C(=O)O)cc3)cc2c1 [Compound 46, (S)-3-[4 [(5-Amidino-2-benzofuranyl)carbonylamino]phenyl]-2-aminopropionic acid]
10 nM	N=C(N)c1ccc2oc(C(=O)NC3CCC(CCC(=O)O)CC3)cc2c1 (centres unmarked) [Compound 165, 3-[4-[(5-Amidino-2-benzofuranyl)carbonylamino]cyclohexyl]propionic acid]
20 nM	N=C(N)c1ccc2cc(C(=O)Nc3ccc(OCC(=O)O)cc3)sc2c1 [Compound 135, 4-[(6-Amidinobenzo[b]thien-2-yl)carbonylamino]phenoxyacetic acid]
30 nM	N=C(N)c1cnc2oc(C(=O)Nc3ccc(OCC(=O)O)nc3)cc2c1 [Compound 246, 5-(5-Amidinofuro[2,3-b]pyridine-2-carbonylamino)-2-pyridyloxyacetic acid]
100 nM	CN(C(=O)c1cc2cc(C(=N)N)ccc2o1)c1ccc(OCC(=O)O)cc1 [Compound 21, 4-[(5-Amidino-2-benzofuranyl)carbonyl-N-methylamino]phenoxyacetic acid]
230 nM	N=C(N)c1ccc2cc(C(=O)Nc3ccc(OCC(=O)O)cc3)oc2c1 [Compound 12, 4-[(6-Amidino-2-benzofuranyl)carbonylamino]phenoxyacetic acid]
40 nM	N=C(N)c1ccc2oc(C(=O)Nc3ccc(CCC(=O)O)cc3)cc2c1 [Compound 37, 3-[4-[(5-Amidino-2-benzofuranyl)carbonylamino]phenyl]propionate]
30 nM	N=C(N)c1ccc2oc(C(=O)Nc3ccc(OCC(=O)O)c(OCC(=O)O)c3)cc2c1 [Compound 29, [[4-[(5-Amidino-2-benzofuranyl)carbonylamino]-o-phenylene]dioxy]diacetic acid]
230 nM	CCCCC(=O)N(CC(=O)O)c1ccc(NC(=O)c2cc3cc(C(=N)N)ccc3o2)cc1 [Compound 74, [4-[(5-Amidino-2-benzofuranyl)carbonylamino]-N-(n-valeryl)anilino]acetic acid]
150 nM	COc1c(C(=O)N[C@H]2CC[C@H](OCC(=O)O)CC2)oc2ccc(C(=N)N)cc12 [Compound 184, trans-[4-[(5-Amidino-3-methoxy-2-benzofuranyl)carbonyl-amino]cyclohexyloxy]acetic acid]
200 nM	Cn1c(C(=O)Nc2ccc(OCC(=O)O)cc2)cc2ccc(C(=N)N)cc21 [Compound 118, 4-[(6-Amidino-1-methyl-2-indolyl)carbonylamino]phenoxyacetic acid]
100 nM	CCOC(=O)CO[C@H]1CC[C@H](NC(=O)c2cc3ccc(C(=N)N)cc3[nH]2)CC1 [Compound 209, Ethyl trans-[4-[(6-Amidino-2-indolyl)carbonylamino]cyclohexyloxy]acetate]
320 nM	CCOC(=O)CCN1CCC(OC(=O)c2cc3cc(C(=N)N)ccc3o2)CC1 [Compound 193, Ethyl 3-[4-[(5-amidino-2-benzofuranyl)carbonyloxy]piperidino]propionate]
30 nM	Cc1c(C(=O)N[C@H]2CC[C@H](OCC(=O)O)CC2)oc2ccc(C(=N)N)cc12 [Compound 182, trans-[4-[(5-Amidino-3-methyl-2-benzofuranyl)carbonylamino]cyclohexyloxy]acetic acid]
10 nM	N=C(N)c1ccc2oc(C(=O)N[C@H]3CC[C@H](OCC(=O)O)CC3)cc2c1 [Compound 179, trans-[4-[(5-Amidino-2-benzofuranyl)carbonylamino]cyclohexyloxy]acetic acid]
700 nM	N=C(N)c1ccc2sc(C(=O)Nc3ccc(OCC(=O)O)cc3)cc2c1 [Compound 134, 4-[(5-Amidinobenzo[b]thien-2-yl)carbonylamino]phenoxyacetic acid]
1750 nM	CC(C)(C)OC(=O)CN(CC(=O)OC(C)(C)C)[C@H]1CC[C@H](NC(=O)c2cc3cc(C(=N)N)ccc3o2)CC1 [Compound 203, di-t-butyl trans-[4-[(5-amidino-2-benzofuranyl)-carbonylamino]cyclohexylamino]diacetate]
20 nM	N=C(N)c1ccc2oc(C(=O)N[C@H]3CC[C@H](NCC(=O)O)CC3)cc2c1 [Compound 195, trans-[4-[(5-Amidino-2-benzofuranyl)carbonylamino]cyclohexylamino]acetic acid]
60 nM	N=C(N)c1ccc2cc(C(=O)Nc3ccc(OCC(=O)O)cc3)[nH]c2c1 [Compound 95, 4-[(6-Amidino-2-indolyl)carbonylamino]phenoxyacetic acid]
230 nM	CCOC(=O)CN(CC(=O)OCC)[C@H]1CC[C@H](NC(=O)c2cc3cc(C(=N)N)ccc3o2)CC1 [Compound 202, Diethyl trans-[4-[(5-amidino-2-benzofuranyl)carbonylamino]cyclohexylamino]diacetate]
